Data from the supplement of paper PMC10307832.

Assays:
Experiment in all cases: relative viability (nuclei count vs DMSO), 5 days (fraction); higher = more cells survive
NCI-H358 = test system: NCI-H358
How it was run: (§1)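 Lung cancer cell lines, seeded in 1536-well plates, were treated the following day by pin tool with a single drug or with five library-drug doses (not always all listed) in √10 steps on top of a fixed anchor-drug dose. Cells were fixed and nuclei stained in one step after 5 days, and nuclei were counted. Relative viability is the nuclei count for treated wells divided by that for vehicle wells, reported as medians of duplicate plates.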

NCI-H2085 = test system: NCI-H2085
How it was run: as §1

NCI-H650 = test system: NCI-H650
How it was run: as §1

COR-L23 = test system: COR-L23
How it was run: as §1

NCI-H1993 = test system: NCI-H1993
How it was run: as §1

NCI-H1915 = test system: NCI-H1915
How it was run: as §1

NCI-H2347 = test system: NCI-H2347
How it was run: as §1

EPLC-272H = test system: EPLC-272H
How it was run: as §1

SW 1573 = test system: SW 1573
How it was run: as §1

PC-14 = test system: PC-14
How it was run: as §1

NCI-H1651 = test system: NCI-H1651
How it was run: as §1

NCI-H2126 = test system: NCI-H2126
How it was run: as §1

LU99A = test system: LU99A
How it was run: as §1

NCI-H838 = test system: NCI-H838
How it was run: as §1

HCC-44 = test system: HCC-44
How it was run: as §1

HARA = test system: HARA
How it was run: as §1

HOP-62 = test system: HOP-62
How it was run: as §1

NCI-H2023 = test system: NCI-H2023
How it was run: as §1

LC-2-ad = test system: LC-2-ad
How it was run: as §1

UMC-11 = test system: UMC-11
How it was run: as §1

NCI-H1355 = test system: NCI-H1355
How it was run: as §1

HCC-15 = test system: HCC-15
How it was run: as §1

COc1nc(C)cnc1NS(=O)(=O)c1cccnc1-c1ccc(-c2nnco2)cc1 [Zibotentan] + CC(=O)Nc1cccc(-n2c(=O)n(C3CC3)c(=O)c3c(Nc4ccc(I)cc4F)n(C)c(=O)c(C)c32)c1 [Trametinib] (partner 0.02 µM)
relative viability (NCI-H358; first compound 0.08 µM): 0.15
relative viability (NCI-H358; first compound 0.253 µM): 0.109
relative viability (NCI-H358; first compound 2.53 µM): 0.145
relative viability (NCI-H2085; first compound 0.08 µM): 0.533
relative viability (NCI-H2085; first compound 0.253 µM): 0.448
relative viability (NCI-H2085; first compound 0.8 µM): 0.541
relative viability (NCI-H2085; first compound 2.53 µM): 0.489
relative viability (NCI-H650; first compound 0.08 µM): 1.06
relative viability (NCI-H650; first compound 0.253 µM): 1.04
relative viability (NCI-H650; first compound 0.8 µM): 0.967
relative viability (NCI-H650; first compound 2.53 µM): 0.844
relative viability (COR-L23; first compound 0.08 µM): 0.573
relative viability (COR-L23; first compound 0.253 µM): 0.531
relative viability (COR-L23; first compound 0.8 µM): 0.831
relative viability (COR-L23; first compound 2.53 µM): 0.555
relative viability (NCI-H1993; first compound 0.08 µM): 0.591
relative viability (NCI-H1993; first compound 0.253 µM): 0.51
relative viability (NCI-H1993; first compound 0.8 µM): 0.459
relative viability (NCI-H1993; first compound 2.53 µM): 0.545
relative viability (NCI-H1915; first compound 0.08 µM): 0.325
relative viability (NCI-H1915; first compound 0.253 µM): 0.313
relative viability (NCI-H1915; first compound 0.8 µM): 0.347
relative viability (NCI-H1915; first compound 2.53 µM): 0.296
relative viability (NCI-H2347; first compound 0.08 µM): 0.252
relative viability (NCI-H2347; first compound 0.253 µM): 0.272
relative viability (NCI-H2347; first compound 0.8 µM): 0.339
relative viability (NCI-H2347; first compound 2.53 µM): 0.287
relative viability (EPLC-272H; first compound 0.08 µM): 0.287
relative viability (EPLC-272H; first compound 0.253 µM): 0.234
relative viability (EPLC-272H; first compound 0.8 µM): 0.31
relative viability (EPLC-272H; first compound 2.53 µM): 0.312
relative viability (SW 1573; first compound 0.08 µM): 0.548
relative viability (SW 1573; first compound 0.8 µM): 0.411
relative viability (SW 1573; first compound 2.53 µM): 0.729
relative viability (PC-14; first compound 0.08 µM): 0.833
relative viability (PC-14; first compound 0.253 µM): 0.752
relative viability (PC-14; first compound 0.8 µM): 0.733
relative viability (PC-14; first compound 2.53 µM): 0.735
relative viability (NCI-H1651; first compound 0.08 µM): 0.907
relative viability (NCI-H1651; first compound 0.253 µM): 0.794
relative viability (NCI-H1651; first compound 0.8 µM): 0.832
relative viability (NCI-H1651; first compound 2.53 µM): 0.803
relative viability (NCI-H2126; first compound 0.08 µM): 0.558
relative viability (NCI-H2126; first compound 0.253 µM): 0.525
relative viability (NCI-H2126; first compound 0.8 µM): 0.557
relative viability (NCI-H2126; first compound 2.53 µM): 0.563
relative viability (LU99A; first compound 0.08 µM): 0.598
relative viability (LU99A; first compound 0.253 µM): 0.547
relative viability (LU99A; first compound 0.8 µM): 0.537
relative viability (LU99A; first compound 2.53 µM): 0.585
relative viability (NCI-H838; first compound 0.08 µM): 0.525
relative viability (NCI-H838; first compound 0.253 µM): 0.454
relative viability (NCI-H838; first compound 0.8 µM): 0.487
relative viability (NCI-H838; first compound 2.53 µM): 0.508
relative viability (HCC-44; first compound 0.08 µM): 1.11
relative viability (HCC-44; first compound 0.253 µM): 1
relative viability (HCC-44; first compound 0.8 µM): 0.953
relative viability (HCC-44; first compound 2.53 µM): 1.07
relative viability (HARA; first compound 0.08 µM): 0.996
relative viability (HARA; first compound 0.8 µM): 0.414
relative viability (HARA; first compound 2.53 µM): 0.764
relative viability (HOP-62; first compound 0.08 µM): 0.429
relative viability (HOP-62; first compound 0.253 µM): 0.367
relative viability (HOP-62; first compound 0.8 µM): 0.421
relative viability (HOP-62; first compound 2.53 µM): 0.39
relative viability (NCI-H2023; first compound 0.08 µM): 0.631
relative viability (NCI-H2023; first compound 0.8 µM): 0.614
relative viability (NCI-H2023; first compound 2.53 µM): 0.558
relative viability (LC-2-ad; first compound 0.08 µM): 0.928
relative viability (LC-2-ad; first compound 0.253 µM): 0.858
relative viability (LC-2-ad; first compound 0.8 µM): 0.913
relative viability (LC-2-ad; first compound 2.53 µM): 0.935
relative viability (UMC-11; first compound 0.08 µM): 0.617
relative viability (UMC-11; first compound 0.253 µM): 0.665
relative viability (UMC-11; first compound 0.8 µM): 0.741
relative viability (UMC-11; first compound 2.53 µM): 0.779
relative viability (NCI-H1355; first compound 0.08 µM): 0.399
relative viability (NCI-H1355; first compound 0.253 µM): 0.437
relative viability (NCI-H1355; first compound 0.8 µM): 0.402
relative viability (NCI-H1355; first compound 2.53 µM): 0.438
relative viability (HCC-15; first compound 0.08 µM): 0.397
relative viability (HCC-15; first compound 0.253 µM): 0.412
relative viability (HCC-15; first compound 0.8 µM): 0.414
relative viability (HCC-15; first compound 2.53 µM): 0.319
